Patent US8551965B2, “Anti-viral pyrimidine nucleoside analogues” (University College Cardiff Consultants Limited, priority 2000, dated 2013)
Where two headings read alike, the source gives them in different places.

Columns and labels:
Assay type in all cases: cell-based
[1] = system: varicella zoster virus (VZV) YS viral strain; assay: VZV plaque reduction in tissue culture, YS strain; details: read-out: EC50 VZV YS
[2] = Cytotoxicity to human embryonic lung cells; details: 50% cytotoxic concentration to human embryonic lung cells
[3] = system: human embryonic lung cells; assay: Cytotoxicity to human embryonic lung cells; details: minimum cytotoxic concentration to human embryonic lung cells
Description: MCC AM is the minimum cytotoxic concentration to human embryonic lung cells.

[4] = system: varicella zoster virus (VZV) viral strain YS; TK deficient; assay: VZV plaque reduction in tissue culture, strain YS, TK deficient; details: read-out: EC50 VZV TK-YS
[5] = system: varicella zoster virus (VZV) viral strain 07; TK deficient; assay: microbe, parasite or virus in culture; details: read-out: EC50 VZV TK-07
[6] = system: varicella zoster virus (VZV) OKA viral strain; assay: microbe, parasite or virus in culture; details: read-out: EC50 VZV OKA
[7] = system: human embryonic lung cells; assay: Cytotoxicity to human embryonic lung cells; details: 50% cytotoxic concentration to human embryonic lung cells
[8] = Human alphaherpesvirus 3, 120 h, reduce viral plaque formation after 5 days by 50% compared to untreated control, YS viral strain
[9] = Human alphaherpesvirus 3, 120 h
[10] = reduce viral plaque formation after 5 days by 50% compared to untreated control, YS viral strain
[11] = reduce viral plaque formation after 5 days by 50%, viral strain YS, TK deficient
[12] = reduce viral plaque formation after 5 days by 50%, viral strain 07, TK deficient
[13] = reduce viral plaque formation after 5 days by 50% compared to untreated control, OKA viral strain

Question: With `Nc1nc2c(ncn2COCCO)c(=O)[nH]1` [Acyclovir, reference compound] as the compound, how does the EC50 [1, 8] read?
Answer: Its EC50 is 1 µM.

Question: And the CC50 [2]?
Answer: Its CC50 is greater than 200 µM.

Question: What about the MCC [3] of the same compound?
Answer: The MCC was greater than 200 µM.

Question: With `O=c1[nH]c(=O)n([C@H]2C[C@H](O)[C@@H](CO)O2)cc1/C=C/Br` [BVDU, (E)-5-(2-bromo-vinyl)-2′-deoxyuridine, reference compound] as the compound, how does the EC50 [1, 9] read?
Answer: The EC50 was 0.003 µM.

Question: Which results are given for `CCCCCCCCCCc1cc2cn([C@H]3C[C@H](O)[C@@H](CO)O3)c(=O)nc2o1` [Ex2 WO 98/49177, 3-(2-deoxy-β-D-ribofuranosyl)-6-decyl-2,3-dihydrofuro [2,3-d]pyrimidin-2-one, reference compound]?
Answer: EC50 [1, 8]: 0.008 µM; EC50 [4, 9]: > 50 µM; CC50 [2]: > 50 µM; MCC [3]: >50 µM; EC50 [5, 9]: > 50 µM; EC50 [6, 9]: 0.015 µM

Question: Which EC50 [1, 10] does the source give for `CCCCCCCCc1ccc(-c2cc3cn([C@H]4C[C@H](O)[C@@H](CO)O4)c(=O)nc3o2)cc1` [Example 6, 3-(2′-deoxy-β-D-ribofuranosyl)-6-(4-n-octylphenyl)-2,3-dihydrofuro[2,3-d]pyrimidin-2-one] here?
Answer: The EC50 was 0.005 µM.

Question: What about the EC50 [4, 11] of the same compound?
Answer: The EC50 was greater than 20 µM.

Question: What about the CC50 [7] of the same compound?
Answer: The CC50 was greater than 200 µM.

Question: What about the MCC [3] of the same compound?
Answer: Its MCC is “≧20 μM”.

Question: What about the EC50 [5, 12] of the same compound?
Answer: The EC50 was greater than 20 µM.

Question: And the EC50 [6, 13]?
Answer: Its EC50 is 0.015 µM.

Question: With `O=c1nc2oc(-c3ccccc3)cc2cn1[C@H]1C[C@H](O)[C@@H](CO)O1` [Example 7, 3-(2′-deoxy-β-D-ribofuranosyl)-6-(phenyl)-2,3-dihydrofuro-[2,3-d]pyrimidin-2-one] as the compound, how does the EC50 [1, 10] read?
Answer: The EC50 was less than 0.5 µM.

Question: What about the EC50 [4, 11] of the same compound?
Answer: The EC50 was 162 µM.

Question: What about the CC50 [7] of the same compound?
Answer: The CC50 was greater than 200 µM.

Question: What about the MCC [3] of the same compound?
Answer: Its MCC is greater than 200 µM.

Question: What about the EC50 [5, 12] of the same compound?
Answer: Its EC50 is greater than 200 µM.

Question: What about the EC50 [6, 13] of the same compound?
Answer: The EC50 was less than 0.5 µM.

Question: Which EC50 [1, 10] does the source give for `Cc1ccc(-c2cc3cn([C@H]4C[C@H](O)[C@@H](CO)O4)c(=O)nc3o2)cc1` [Example 8, 3-(2′-deoxy-β-D-ribofuranosyl)-6-(4-methylphenyl)-2,3-dihydrofuro-[2,3-d]pyrimidin-2-one] here?
Answer: The EC50 was less than 0.5 µM.

Question: What about the EC50 [4, 11] of the same compound?
Answer: The EC50 was greater than 200 µM.

Question: And the CC50 [7]?
Answer: Its CC50 is greater than 200 µM.

Question: And the MCC [3]?
Answer: Its MCC is greater than 200 µM.

Question: And the EC50 [5, 12]?
Answer: The EC50 was 103 µM.

Question: And the EC50 [6, 13]?
Answer: Its EC50 is less than 0.5 µM.

Question: What does the source list for `O=c1nc2oc(-c3ccc(F)cc3)cc2cn1[C@H]1C[C@H](O)[C@@H](CO)O1` [Example 10, 3-(2′-deoxy-β-D-ribofuranosyl)-6-(4-fluorophenyl)-2,3-dihydrofuro-[2,3-d]pyrimidin-2-one]?
Answer: EC50 [1, 10]: > 50 µM; EC50 [4, 11]: > 50 µM; CC50 [7]: 171 µM; MCC [3]: 200 µM; EC50 [5, 12]: > 50 µM; EC50 [6, 13]: > 50 µM

Question: What does the source list for `O=c1nc2oc(-c3ccc(Cl)cc3)cc2cn1[C@H]1C[C@H](O)[C@@H](CO)O1` [Example 11]?
Answer: EC50 [1, 8]: 0.08 µM; EC50 [4, 9]: > 20 µM; CC50 [2]: > 200 µM; MCC [3]: ≧20 μM; EC50 [5, 9]: > 20 µM; EC50 [6, 9]: 0.1 µM

Question: Which results are given for `O=c1nc2oc(-c3ccc(Br)cc3)cc2cn1[C@H]1C[C@H](O)[C@@H](CO)O1` [Example 12, 3-(2′-deoxy-β-D-ribofuranosyl)-6-(4-bromophenyl)-2,3-dihydrofuro-[2,3-d]pyrimidin-2-one]?
Answer: EC50 [1, 8]: 0.2 µM; EC50 [4, 9]: > 5 µM; CC50 [2]: 96 µM; MCC [3]: >2 µM; EC50 [5, 9]: > 5 µM; EC50 [6, 9]: 0.29 µM

Question: What does the source list for `COc1ccc(-c2cc3cn([C@H]4C[C@H](O)[C@@H](CO)O4)c(=O)nc3o2)cc1` [Example 14, 3-(2′-deoxy-β-D-ribofuranosyl)-6-(4-methoxyphenyl)-2,3-dihydrofuro-[2,3-d]pyrimidin-2-one]?
Answer: EC50 [1, 8]: 0.05 µM; EC50 [4, 9]: > 50 µM; CC50 [2]: > 200 µM; MCC [3]: 200 µM; EC50 [5, 9]: > 50 µM

Question: For `CCOc1ccc(-c2cc3cn([C@H]4C[C@H](O)[C@@H](CO)O4)c(=O)nc3o2)cc1` [Example 15, 3-(2′-deoxy-β-D-ribofuranosyl)-6-(4-ethoxyphenyl)-2,3-dihydrofuro-[2,3-d]pyrimidin-2-one], which EC50 [1, 8] is on record?
Answer: The EC50 was 0.01 µM.

Question: What about the EC50 [4, 9] of the same compound?
Answer: Its EC50 is greater than 50 µM.

Question: And the CC50 [2]?
Answer: Its CC50 is greater than 200 µM.

Question: What about the MCC [3] of the same compound?
Answer: Its MCC is 200 µM.

Question: What about the EC50 [5, 9] of the same compound?
Answer: The EC50 was 50 µM.

Question: Which results are given for `CCCOc1ccc(-c2cc3cn([C@H]4C[C@H](O)[C@@H](CO)O4)c(=O)nc3o2)cc1` [Example 16, 3-(2′-deoxy-β-D-ribofuranosyl)-6-(4-n-propoxyphenyl)-2,3-dihydrofuro-[2,3-d]pyrimidin-2-one]?
Answer: EC50 [1, 8]: 0.002 µM; EC50 [4, 9]: > 50 µM; CC50 [2]: > 200 µM; MCC [3]: ≧200 μM; EC50 [5, 9]: 11 µM

Question: With `CCCCCOc1ccc(-c2cc3cn([C@H]4C[C@H](O)[C@@H](CO)O4)c(=O)nc3o2)cc1` [Example 17, 3-(2′-deoxy-β-D-ribofuranosyl)-6-(4-n-pentoxyphenyl)-2,3-dihydrofuro-[2,3-d]pyrimidin-2-one] as the compound, how does the EC50 [1, 8] read?
Answer: The EC50 was 0.002 µM.

Question: And the EC50 [4, 9]?
Answer: The EC50 was greater than 20 µM.

Question: And the CC50 [2]?
Answer: The CC50 was greater than 200 µM.

Question: What about the MCC [3] of the same compound?
Answer: Its MCC is greater than 50 µM.

Question: And the EC50 [5, 9]?
Answer: The EC50 was 3.7 µM.

Question: What does the source list for `CCCCCCOc1ccc(-c2cc3cn([C@H]4C[C@H](O)[C@@H](CO)O4)c(=O)nc3o2)cc1` [Example 18, 3-(2′-deoxy-β-D-ribofuranosyl)-6(4-n-hexoxyphenyl)-2,3-dihydrofuro-[2,3-d]pyrimidin-2-one]?
Answer: EC50 [1, 8]: 0.002 µM; EC50 [4, 9]: > 20 µM; CC50 [2]: > 200 µM; MCC [3]: >20 µM; EC50 [5, 9]: > 5 µM

Question: What does the source list for `CCCCCCCOc1ccc(-c2cc3cn([C@H]4C[C@H](O)[C@@H](CO)O4)c(=O)nc3o2)cc1` [Example 19, 3-(2′-deoxy-β-D-ribofuranosyl)-6-(4-n-heptoxyphenyl)-2,3-dihydrofuro-[2,3-d]pyrimidin-2-one]?
Answer: EC50 [1, 8]: 0.002 µM; EC50 [4, 9]: > 20 µM; CC50 [2]: > 200 µM; MCC [3]: ≧50 μM; EC50 [5, 9]: > 50 µM
